Test results taken from patent US10660910B2, “Use of sedoheptulose for prevention or treatment of inflammation” (C7 SUGAR GMBH, priority 2013, dated 2020).

Experiments:
osteoclasts = experiment: In vitro bone resorption assay; format: cell-based, mouse
Protocol: Mouse bones were isolated from male wild-type and CARKL overexpressing mice and bone marrow wash flushed, washed and cleared from redblood cells by lysis, and subsequently differentiated in DMEM containing 25 mM glucose and 20 ng/ml M-CSF. After 4 days, cells for osteoclast differentiation were harvested and seeded in corning osteo assay plates with differentiation media (see below), and for primary bone marrow derived macrophages (BMDM) the medium was renewed and further supplemented with M-SCF for two days. Differentiated BMDM were then seeded in respective DMEM-media containing 10% FBS and indicated carbohydrate mixes at 3 g/L (glucose and fructose (GF), or glucose, fructose and sedoheptulose (GFS)) at least two days before experiments were performed. Osteoclast precursor cells (bone marrow cells treated with 20 ng/ml M-CSF for 4 days) were plated in 24-well Corning Osteo Assay plate in the presence of 10 ng/ml M-CSF and 100 ng/ml RANKL in alpha-MEM medium containing 10% FBS and 3 g/L either glucose and fructose (GF), or glucose, fructose, and sedoheptulose (GFS). The Medium was renewed every third day. […] Each well was entirely photographed by TissueFax with an ×20 objective and all visible resorption pits were counted and analysed blinded.

[1] = molecular target: T1, recombinant sedoheptulose kinase (CARKL) (Homo sapiens, UniProt Q9UHJ6); experiment: Sedoheptulose kinase assay (ADP Quest, ADP formation); format: biochemical; settings: constant amount of recombinant CARKL, constant ATP (150 μM), increased doses of sedoheptulose, FIG. 4A
T1 construct: made in house; host or cells: E. coli
T1 sequence (Q9UHJ6 1-478): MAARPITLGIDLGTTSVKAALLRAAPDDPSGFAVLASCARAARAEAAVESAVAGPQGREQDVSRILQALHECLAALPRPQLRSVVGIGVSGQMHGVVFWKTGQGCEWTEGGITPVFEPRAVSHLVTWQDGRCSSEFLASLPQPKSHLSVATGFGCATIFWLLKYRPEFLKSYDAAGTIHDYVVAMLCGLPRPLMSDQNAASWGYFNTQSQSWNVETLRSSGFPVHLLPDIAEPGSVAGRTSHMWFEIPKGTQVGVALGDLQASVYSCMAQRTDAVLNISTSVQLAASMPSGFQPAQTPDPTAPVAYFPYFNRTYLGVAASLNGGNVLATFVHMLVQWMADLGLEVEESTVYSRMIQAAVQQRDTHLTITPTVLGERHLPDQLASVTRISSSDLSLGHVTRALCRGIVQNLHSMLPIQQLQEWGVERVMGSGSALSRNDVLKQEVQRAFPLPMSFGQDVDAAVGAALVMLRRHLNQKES
Protocol: FIG. 4: In an in vitro kinase assay, which employs ADP formation as activity readout, the sedoheptulose turnover rate at constant ATP (150 μM) concentration was enhanced either by (A) increasing sedoheptulose concentration or (B) by increasing the amount of the rate-limiting enzyme sedoheptulose kinase (CARKL). (C-E) Hepatocytes from wilt-type (WT) and sedoheptulose kinase CARKL overexpressing mice were pre-cultured for two days in GFS containing media before basal (C) ECAR and (D) OCR was recorded of these cells. (E) Hepatocytes from both genetic lineages (CARKL and WT controls) were cultivated in GF or GFS containing media and then pre-starved (no-carbohydrates) for 1 h to measure glucose-induced ECAR after the addition of glucose to reach a final concentration of 1 g/L in the culture media mean+/−S.D., n=7-11). As metabolic in vivo indicators (F) the respiratory quotient (RQ) and (G) energy expenditure (EE, kcal/day/kg^0.75) per activity by indirect calorimetry were determined and compared CARKL to wild-type (WT) littermates during day (8 am to 4 pm) and night (8 pm to 4 am). Data represent mean values, n=3, +/−SD. […] Blood glucose was measured before the injection (control) and 15, 30, 45 and 60 minutes after injection and graphed as relative value in % of control. […]

primary human adipocytes = experiment: Human adipocyte culture in GF or GFS media, gene expression by RT-PCR; format: cell-based
Protocol: Stromal vascular fraction cells (SVFs) from subcutaneous white adipose tissue of a patient undergoing abdominal surgery were isolated as described before (Lindroos et al, Cell Metab. (2013), July 2; 18(1):62-74.). Briefly, adipose tissue was digested with Collagenase II (Worthington) and filtered. SVFs were separated from mature adipocytes by centrifugation, followed by the lysis of erythrocytes in the SVF-fraction (Buffer EL, Qiagen). The purified SVFs were cultured in DMEM/F12, 10% FBS (Gibco, Life Technologies). As soon as the cells reached confluence, they were washed with DMEM/F12 w/o glucose (Biowest) and the medium was replaced by DMEM/F12 with a total carbohydrate load of 3 g/L, containing 1.5 g/L glucose and fructose or 1 g/L each of glucose, fructose, and sedoheptulose, respectively. Two days after confluence (day 0), differentiation was induced by adding 1 μM dexamethasone, 1.74 μM insulin, 5 μM troglitazone, […], 17 μM pantothenic acid and 33 μM biotin. After two days, IBMX and dexamethasone were omitted, while insulin and troglitazone were removed on day 4. 50% of the medium was replaced on day 6. Two days later, the cells were harvested for RNA isolation (RNeasy mini kit, Qiagen).
Briefly, total RNA was extracted and reverse-transcribed using commercial kits (QIAGEN, Applied Biosystems). Quantitative real-time PCRs were performed on an AbiPRISM 7900HT real-time cycler using iTaq SYBR Green Supermix with ROX (BioRad) to measure CARKL, adiponectin, UCP-1, TNFa, IL-6, MCP-1, and beta-actin expression as previously described (Haschemi et al., Cell Metab. 15 (2012), 813-826). Expression of target gene was normalized to beta-actin expression. Relative expression of target gene was calculated by the delta-delta CT method.

sedoheptulose turnover rates as measured by ADP formation [1]: enhanced
sedoheptulose kinase CARKL mRNA expression (primary human adipocytes; GFS media (1 g/L each glucose, fructose, sedoheptulose) vs GF (1.5 g/L each), eight days differentiation, FIG. 3A): increase
Compound: O=C(CO)[C@@H](O)[C@H](O)[C@H](O)[C@H](O)CO [sedoheptulose, Sedoheptulose]
pit formation by osteoclasts (osteoclasts; 7 days in Corning Osteo Assay plates, GFS vs GF media, FIG. 5C): reduced
larger resorption-pits (osteoclasts; WT osteoclasts in GF or GFS media, FIG. 5D): found only in the absence of sedoheptulose
adiponectin expression (primary human adipocytes; GFS vs GF treated cells, eight days, FIG. 3B): increase
UCP-1 expression (primary human adipocytes; GFS vs GF treated cells, eight days, FIG. 3C): increase
